From PubChem BioAssay (NCI)
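Exposure lasted 48 hours, with cells grown in 96-well plates and compounds tested at five concentrations. GI50 = concentration required for 50% inhibition of growth. TGI: total growth inhibition.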

Experiments:
Assay in all cases: inhibition of tumour cell growth, NCI panel, 48 h
[1] = test system: HOP-92 NSCLC
[2] = test system: SNB-19 CNS
[3] = test system: M14 melanoma
[4] = test system: OVCAR-4 ovarian
[5] = test system: TK-10 renal
[6] = test system: COLO 205 colon
[7] = test system: OVCAR-5 ovarian
[8] = test system: HL-60(TB) leukemia
[9] = test system: NCI-H23 lung
[10] = test system: UACC-257 melanoma

Compound	GI50 [1]	TGI [1]	GI50 [2]	TGI [2]	GI50 [3]	TGI [3]	GI50 [4]	TGI [4]	GI50 [5]	TGI [5]	GI50 [6]	TGI [6]	GI50 [7]	TGI [7]	GI50 [8]	TGI [8]	GI50 [9]	TGI [9]	GI50 [10]	TGI [10]
O=C(O)c1cccc(COc2ccc([N+](=O)[O-])cc2Cl)c1	45.2 µM	> 100 µM	> 100 µM	> 100 µM	> 100 µM	> 100 µM	> 100 µM	> 100 µM	27.2 µM	> 100 µM	> 100 µM	> 100 µM	> 100 µM	> 100 µM	58.5 µM	> 100 µM				
CC(C)[C@H](O)C(=O)N[C@@H](C)C(=O)N[C@@H]1C(=O)N(C)CCc2ccccc21	> 100 µM	> 100 µM	> 100 µM	> 100 µM	> 100 µM	> 100 µM	> 100 µM	> 100 µM	> 100 µM	> 100 µM	> 100 µM	> 100 µM	> 100 µM	> 100 µM	> 100 µM	> 100 µM	> 100 µM	> 100 µM	> 100 µM	> 100 µM
CCOC(=O)NC(=O)c1cn(C2CCCCC2)c(=O)[nH]c1=O		> 100 µM		> 100 µM		> 100 µM		> 100 µM		> 100 µM		> 100 µM		> 100 µM		> 100 µM		> 100 µM		> 100 µM
N[C@H](CCC(=O)N[C@@H](Cc1c[nH]c2ccccc12)C(=O)O)C(=O)O	> 100 µM	> 100 µM	> 100 µM	> 100 µM	> 100 µM	> 100 µM	> 100 µM	> 100 µM	> 100 µM	> 100 µM	> 100 µM	> 100 µM	> 100 µM	> 100 µM	> 100 µM	> 100 µM	> 100 µM	> 100 µM	> 100 µM	> 100 µM
CC(C)CCC[C@@H](C)C1CCC2[C@@H]3CC=C4C[C@@H](C(=O)NCCN(C)C)CC[C@]4(C)C3CC[C@@]21C (stereo partly specified)		61.4 µM		> 100 µM		32.6 µM		> 100 µM		69.8 µM		38.3 µM		> 100 µM		> 100 µM		52.1 µM		77.1 µM
O=C(N/C(=C\c1ccc([N+](=O)[O-])cc1)c1nc2ccccc2[nH]1)c1ccccc1		> 100 µM		> 100 µM		> 100 µM		> 100 µM		> 100 µM		> 100 µM		> 100 µM		> 100 µM		> 100 µM		> 100 µM
CC(C)(C)c1ccc2c(c1)S(=O)(=O)Nc1ccc(Cl)cc1NS(=O)(=O)c1cc(C(C)(C)C)ccc1OCCOCCOCCO2		72.7 µM		> 100 µM		> 100 µM		28 µM		> 100 µM		> 100 µM		> 100 µM		> 100 µM		> 100 µM		> 100 µM
COc1cc2c(cc1O)CCN[C@]21CS[C@@H]2c3c(OC(C)=O)c(C)c4c(c3[C@H](COC1=O)N1[C@@H]2[C@H]2c3c(cc(C)c(OC)c3O)C[C@@H]([C@@H]1O)N2C)OCO4	0.00273 µM	0.0518 µM		1.39 µM		0.00383 µM		0.0718 µM	0.00331 µM	3.54 µM				1.19 µM		0.0114 µM		0.0057 µM		0.00557 µM
COc1ccc(C(CC(=O)c2ccc3c(c2)OCO3)c2c(O)c3ccccc3oc2=O)cc1OC (stereo unspecified)		> 100 µM		> 100 µM				> 100 µM		> 100 µM		> 100 µM		> 100 µM		> 100 µM		> 100 µM		> 100 µM
COC(=O)c1cc2c(o1)-c1nccc3c1c(nc1ccccc13)C2=O	1.96 µM	17.7 µM	2.28 µM	6.94 µM	2.31 µM	10.2 µM			22.9 µM	52.2 µM	14.9 µM	29.3 µM	17.3 µM	34.3 µM	2 µM	4.76 µM	5.66 µM	26.7 µM	3.68 µM	15.3 µM
CCC(C)(O)c1cnc(CC(C)C)c(=O)n1O (stereo unspecified)		> 100 µM		> 100 µM				> 100 µM		> 100 µM		> 100 µM		25.8 µM				> 100 µM		> 100 µM
CC1=NN(C(=O)CC(=O)Nc2ccccc2F)C(=O)C1N=Nc1ccccc1[N+](=O)[O-] (stereo unspecified)				> 100 µM		> 100 µM		> 100 µM		> 100 µM		> 100 µM		> 100 µM				> 100 µM		> 100 µM
Cc1ccccc1C1=[N+]([O-])c2ccc(Cl)cc2C1=O		28 µM		64.4 µM		29.9 µM				34.5 µM		20.2 µM		37.8 µM		6.22 µM		32.2 µM		26.4 µM
COc1ccc(CC2c3c(cc(OC)c(OC)c3OC)CCN2C)cc1OC (stereo unspecified)				> 100 µM		> 100 µM		> 100 µM		> 100 µM				> 100 µM				> 100 µM		> 100 µM
O=C1c2ccccc2-c2c1c1ccccc1c(=O)n2CCN1CCNCC1	4.44 µM	17.4 µM	1.32 µM	4.9 µM			10.4 µM	33 µM	2.21 µM	11.3 µM	5.4 µM	18.2 µM	1.55 µM	6.92 µM					4.98 µM	16.9 µM
O=C1CCCN1c1ccccc1I(=O)=O	> 100 µM	> 100 µM	> 100 µM	> 100 µM			> 100 µM	> 100 µM	> 100 µM	> 100 µM	> 100 µM	> 100 µM	> 100 µM	> 100 µM	> 100 µM	> 100 µM	> 100 µM	> 100 µM	> 100 µM	> 100 µM
COc1ccc(-c2nc(-c3cc(OC)cc(OC)c3)[nH]c2-c2ccc(OC)cc2)cc1			> 100 µM	> 100 µM	8.37 µM	> 100 µM	4.03 µM	> 100 µM	53.1 µM	> 100 µM	3.68 µM	> 100 µM	> 100 µM	> 100 µM	3.74 µM	> 100 µM	4.72 µM	> 100 µM	23.8 µM	> 100 µM
NNCCc1ccc(NC(=O)CCCc2ccc(C(=O)Nc3ccccc3N)cc2)cc1	7.26 µM	> 100 µM	63.1 µM	> 100 µM	15.2 µM	> 100 µM	42.4 µM	> 100 µM	2.03 µM	> 100 µM	8.48 µM	40.7 µM	8.15 µM	> 100 µM	3.34 µM	25 µM	21 µM	> 100 µM		

Compound	GI50 [1]	TGI [1]	GI50 [2]	TGI [2]	GI50 [3]	TGI [3]	GI50 [4]	TGI [4]	GI50 [5]	TGI [5]	GI50 [6]	TGI [6]	GI50 [7]	TGI [7]	GI50 [8]	TGI [8]	GI50 [9]	TGI [9]	GI50 [10]	TGI [10]
Cc1cc(Nc2nc(-c3cn(-c4ccc(Cl)cc4)nn3)nc3ccccc23)n[nH]1	23.6 µM	> 50 µM	> 50 µM	> 50 µM	7.54 µM	> 50 µM	10.1 µM	> 50 µM	6.69 µM	39.3 µM	38.2 µM	> 50 µM	> 50 µM	> 50 µM	18.3 µM	> 50 µM			33.4 µM	> 50 µM
Cn1cc(-c2csc(-c3cn(CCCCN4CCCCC4)c4ccccc34)n2)c2cccnc21	1.32 µM	2.7 µM	1.64 µM	3.07 µM			1.96 µM	4.04 µM	1.61 µM	3.05 µM			1.6 µM	3.06 µM			1.66 µM	3.21 µM		
O=[N+]([O-])c1cccc(C2=NOC(C3CCCCC3)C2)c1 (stereo unspecified)		> 100 µM				> 100 µM		> 100 µM		> 100 µM		> 100 µM		> 100 µM		> 100 µM		> 100 µM		> 100 µM
CC1CC(O)C(=O)C(O[C@@H]2C[C@@H]3CC[C@@H]4[C@H](CC[C@]5(C)C(C6=CC(=O)OC6)CC[C@]45O)[C@@]3(C=O)C[C@H]2O)O1 (stereo partly specified)				0.0316 µM		0.178 µM				0.173 µM		0.491 µM		0.283 µM		0.155 µM		0.0565 µM		0.418 µM
COc1c(C)n(CCO)ccc1=O		> 100 µM		> 100 µM		> 100 µM		> 100 µM		> 100 µM		> 100 µM		> 100 µM		> 100 µM				> 100 µM
CCOC(=O)NC(=O)c1cn(C(CC)COC(=O)NCCCCCCNC(=O)OCC(CC)n2cc(C(=O)NC(=O)OCC)c(=O)[nH]c2=O)c(=O)[nH]c1=O (stereo unspecified)				> 100 µM		> 100 µM		> 100 µM				> 100 µM				> 100 µM				> 100 µM
CCCC(=O)C1=C(O)C(Cc2c(O)c(C)c(O)c(C(=O)CCC)c2O)=C(O)C(C)(C)C1=O		> 50 µM		> 50 µM		> 50 µM		> 50 µM		> 50 µM		> 50 µM		33.9 µM				> 50 µM		> 50 µM
ClCCN(CCCl)c1ccc(CNc2ccccc2)cc1			19 µM	> 100 µM	8.27 µM	> 100 µM	16.2 µM	> 100 µM			20.8 µM	> 100 µM	25.8 µM	> 100 µM	2.44 µM	54 µM	9.59 µM	> 100 µM	12.7 µM	> 100 µM
COC(c1ccc(C(C)(C)C)cc1)(c1ccc(C(C)(C)C)cc1)c1ccc(C(C)(C)C)cc1				> 100 µM		> 100 µM		> 100 µM		> 100 µM		> 100 µM		> 100 µM		> 100 µM		> 100 µM		
Cc1ccc(C)c(N2C/C(=N\NC(=O)CC#N)C(c3nc4ccccc4s3)C(=O)C2=O)c1 (stereo unspecified)		> 100 µM		> 100 µM		> 100 µM		> 100 µM		> 100 µM		> 100 µM				> 100 µM		> 100 µM		> 100 µM
CC(C(=O)c1ccc(Cl)cc1)/C(=N/NC(=O)NN)C(=O)Nc1cccc(C(F)(F)F)c1 (stereo unspecified)				> 100 µM		> 100 µM		> 100 µM		> 100 µM		> 100 µM		> 100 µM		> 100 µM		> 100 µM		> 100 µM
CC1=C(C#N)C(=O)CC(c2ccc(Cl)cc2)N(C)N1 (stereo unspecified)		> 100 µM		> 100 µM		> 100 µM		> 100 µM		> 100 µM				> 100 µM		> 100 µM		> 100 µM		> 100 µM
COc1ccc(C(=O)c2cc(OC)c(OC)c(OC)c2)cc1OC						> 100 µM				> 100 µM				> 100 µM		11.7 µM		> 100 µM		> 100 µM
CC(=O)N1CCN(c2ccc(OCC3COC(Cn4ccnc4)(c4ccc(Cl)cc4Cl)O3)cc2)CC1 (stereo unspecified)		> 100 µM				52.1 µM		> 100 µM		99.9 µM		40.8 µM		> 100 µM		> 100 µM				51.1 µM
O=C(c1ccco1)c1c(C(F)(F)F)n([O-])c2ccc(C(F)(F)F)cc2[n+]1=O	0.28 µM	0.718 µM	1.51 µM	2.92 µM	1.04 µM	2.48 µM			0.926 µM	2.3 µM	0.468 µM	0.987 µM	0.38 µM	1.38 µM	0.0696 µM	0.31 µM	0.853 µM	2.3 µM	1.49 µM	3.06 µM
CCCCCCCCCCNC(=O)CI			11.2 µM	23.9 µM	1.59 µM	3.2 µM	1.87 µM	5.42 µM	1.76 µM	3.33 µM	2.38 µM	6.01 µM	3.39 µM	10.4 µM	1.32 µM	3.12 µM	0.929 µM	2.74 µM	1.63 µM	3.39 µM
CCN1c2ccccc2-c2c3c1cc(C)cc3c1ccccc1[n+]2CC				3.16 µM		3.74 µM		5.57 µM		9.66 µM				4.1 µM				4.08 µM		1.65 µM
CN(C(=O)c1ccc([N+](=O)[O-])cc1)c1ccccc1		> 100 µM		> 100 µM		> 100 µM		> 100 µM				> 100 µM		> 100 µM				> 100 µM		> 100 µM
